In article PMC10702058, “Phase I dose escalation study and pilot efficacy analysis of LXI-15029, a novel mTOR dual inhibitor, in Chinese subjects with advanced malignant solid tumors” (BMC Cancer, 2023):
“Also recorded” adds a separate entry of the source.

Assay: Phase I dose escalation: safety and tolerability (DLT, MTD, adverse events, NCI-CTCAE 4.03)

CNC(=O)c1cccc(-c2ccc3c(N4C5CCC4COC5)nc(N4CCOC[C@@H]4C)nc3n2)c1 [LXI-15029]
≥ 10% TRAE: Hypercholesterolemia (80 mg BID (n = 4)): 0 n (%) | ≥ 10% TRAE: Hypertriglyceridemia (80 mg BID (n = 4)): 0 n (%) | ≥ 10% TRAE: LDL increased (80 mg BID (n = 4)): 0 n (%) | ≥ 10% TRAE: Leukocytopenia (80 mg BID (n = 4)): 2 (50.0) n (%) | ≥ 10% TRAE: Neutropenia (80 mg BID (n = 4)): 0 n (%) | ≥ 10% TRAE: Sinus bradycardia (80 mg BID (n = 4)): 1 (25.0) n (%) | Patients with any TEAE (110 mg BID (n = 3)): 3 (100.0) n (%) | Patients with any TEAE, maximum CTCAE Grade 1 (110 mg BID (n = 3)): 3 (100.0) n (%) | Patients with any TEAE, maximum CTCAE Grade 2 (110 mg BID (n = 3)): 0 n (%) | Patients with any TEAE, maximum CTCAE Grade 3 (110 mg BID (n = 3)): 0 n (%) | ≥ 10% TRAE: ALT increased (110 mg BID (n = 3)): 1 (33.3) n (%) | ≥ 10% TRAE: AST increased (110 mg BID (n = 3)): 2 (66.7) n (%) | ≥ 10% TRAE: Decreased appetite (110 mg BID (n = 3)): 0 n (%) | ≥ 10% TRAE: Diarrhea (110 mg BID (n = 3)): 0 n (%) | ≥ 10% TRAE: ECG QT prolonged (110 mg BID (n = 3)): 2 (66.7) n (%) | ≥ 10% TRAE: Fatigue (110 mg BID (n = 3)): 0 n (%) | ≥ 10% TRAE: GGT increased (110 mg BID (n = 3)): 0 n (%) | ≥ 10% TRAE: Hypercholesterolemia (110 mg BID (n = 3)): 0 n (%) | ≥ 10% TRAE: Hypertriglyceridemia (110 mg BID (n = 3)): 0 n (%) | ≥ 10% TRAE: LDL increased (110 mg BID (n = 3)): 0 n (%) | ≥ 10% TRAE: Leukocytopenia (110 mg BID (n = 3)): 1 (33.3) n (%) | ≥ 10% TRAE: Neutropenia (110 mg BID (n = 3)): 0 n (%) | ≥ 10% TRAE: Sinus bradycardia (110 mg BID (n = 3)): 0 n (%) | Patients with any TEAE (150 mg BID (n = 4)): 4 (100.0) n (%) | Patients with any TEAE, maximum CTCAE Grade 1 (150 mg BID (n = 4)): 2 (50.0) n (%) | Patients with any TEAE, maximum CTCAE Grade 2 (150 mg BID (n = 4)): 1 (25.0) n (%) | Patients with any TEAE, maximum CTCAE Grade 3 (150 mg BID (n = 4)): 1 (25.0) n (%) | ≥ 10% TRAE: ALT increased (150 mg BID (n = 4)): 2 (50.0) n (%) | ≥ 10% TRAE: AST increased (150 mg BID (n = 4)): 2 (50.0) n (%) | ≥ 10% TRAE: Decreased appetite (150 mg BID (n = 4)): 1 (25.0) n (%) | ≥ 10% TRAE: Diarrhea (150 mg BID (n = 4)): 0 n (%) | ≥ 10% TRAE: ECG QT prolonged (150 mg BID (n = 4)): 0 n (%) | ≥ 10% TRAE: Fatigue (150 mg BID (n = 4)): 0 n (%) | ≥ 10% TRAE: GGT increased (150 mg BID (n = 4)): 2 (50.0) n (%) | ≥ 10% TRAE: Hypercholesterolemia (150 mg BID (n = 4)): 0 n (%) | ≥ 10% TRAE: Hypertriglyceridemia (150 mg BID (n = 4)): 1 (25.0) n (%) | ≥ 10% TRAE: LDL increased (150 mg BID (n = 4)): 0 n (%) | ≥ 10% TRAE: Leukocytopenia (150 mg BID (n = 4)): 3 (75.0) n (%) | ≥ 10% TRAE: Neutropenia (150 mg BID (n = 4)): 3 (75.0) n (%) | ≥ 10% TRAE: Sinus bradycardia (150 mg BID (n = 4)): 1 (25.0) n (%) | dose-limiting toxicity (DLT) (150 mg BID group, one participant, within the DLT observation window): grade 3 increased alanine aminotransferase (ALT); also recorded: Only one DLT was observed | Patients with any TEAE, maximum CTCAE Grade 1 (Total (n = 24)): 15 (62.5) n (%) | Patients with any TEAE, maximum CTCAE Grade 2 (Total (n = 24)): 6 (25.0) n (%) | Patients with any TEAE, maximum CTCAE Grade 3 (Total (n = 24)): 1 (4.2) n (%) | ≥ 10% TRAE: ALT increased (Total (n = 24)): 5 (20.8) n (%) | ≥ 10% TRAE: AST increased (Total (n = 24)): 5 (20.8) n (%) | ≥ 10% TRAE: Decreased appetite (Total (n = 24)): 3 (12.5) n (%) | ≥ 10% TRAE: Diarrhea (Total (n = 24)): 4 (16.7) n (%) | ≥ 10% TRAE: ECG QT prolonged (Total (n = 24)): 5 (20.8) n (%) | ≥ 10% TRAE: Fatigue (Total (n = 24)): 4 (16.7) n (%) | ≥ 10% TRAE: GGT increased (Total (n = 24)): 4 (16.7) n (%) | ≥ 10% TRAE: Hypercholesterolemia (Total (n = 24)): 3 (12.5) n (%) | ≥ 10% TRAE: Hypertriglyceridemia (Total (n = 24)): 5 (20.8) n (%) | ≥ 10% TRAE: LDL increased (Total (n = 24)): 3 (12.5) n (%) | ≥ 10% TRAE: Leukocytopenia (Total (n = 24)): 10 (41.7) n (%) | ≥ 10% TRAE: Neutropenia (Total (n = 24)): 4 (16.7) n (%) | ≥ 10% TRAE: Sinus bradycardia (Total (n = 24)): 4 (16.7) n (%) | TRAEs of CTCAE grade 1 (all doses): 62.5% | TRAEs of CTCAE grade 2 (all doses): 25% | other serious treatment-related AEs (besides the DLT) (all doses): No other serious treatment-related AEs were reported | mean ALT change from baseline (all doses except the 10-mg and 80-mg doses): increased slightly | mean AST change from baseline (all doses except the 10-mg, 60-mg, and 80-mg doses): increased slightly | treatment-related AE: hypertriglyceridemia (all doses, 24 patients): 20.8% | treatment-related AE: increased alanine aminotransferase (all doses, 24 patients): 20.8% | treatment-related AE: increased aspartate aminotransferase (all doses, 24 patients): 20.8% | treatment-related AE: leukocytopenia (all doses, 24 patients): 41.7% | treatment-related AE: prolonged electrocardiogram QT interval (all doses, 24 patients): 20.8% | deaths within 28 days of the last dose (attributed to disease progression unrelated to treatment): One | association of AE rates, laboratory parameters, vital signs, ECG, other safety data with dose levels (descriptive results): No apparent associations | participants with TEAEs leading to LXI-15029 discontinuation (of 24 participants): Three | participants with a TRAE leading to LXI-15029 discontinuation (of 24 participants): one | participants with a serious TRAE (of 24 participants): one | participants with serious TEAEs (of 24 participants): Five | participants with treatment-emergent AEs (TEAEs) (of 24 participants): 24 participants | participants with treatment-related AEs (TRAEs) (of 24 participants): 22 participants | patients with TEAEs occurring within 30 days after LXI-15029 discontinuation (of 24 participants): Eleven | treatment discontinuation because of AEs (of 24 participants): 2 (8.3%) n (%) | treatment discontinuation because of DLT (of 24 participants): 1 (4.2%) n (%) | tolerability (oral BID, 10 to 150 mg): well tolerated at all doses; also recorded: well tolerated at all dose levels; also recorded: well tolerable | maximum tolerated dose (MTD) (oral monotherapy, Chinese patients with advanced solid tumors): 110 mg BID
